The record followed here is ChEMBL document CHEMBL1138495, “Inhibition of subgenomic hepatitis C virus RNA replication by acridone derivatives: identification of an NS3 helicase inhibitor” (J Med Chem, 2009).

Converted amounts (≈) assume the structure as drawn. The source made the active and inactive calls. The rule behind the calls is not given here.

For series [1], the system named is Hepatitis C virus. Put plainly: Antiviral activity against HCV infected in human HuH5.2 assessed as inhibition of viral RNA synthesis after 4 days by Steady-Glo-luciferase assay. It counts as functional, organism-based, Hepacivirus hominis. The note with it: Huh-5-2, 96 h.
The nature of series [2]: Cytostatic activity against human HuH5.2 after 3 days by MTS/PMS assay. The class given is ADME, Huh-5-2. The note with it: HuH5.2 cells.
Series [3] in a line: Inhibition of ATPase activity of HCV […] expressed in Escherichia coli. Also on record: species or system Hepacivirus hominis.
Series [4] relates to Hepacivirus hominis. Briefly: Inhibition of HCV recombinant NS5B RNA polymerase expressed in Escherichia coli up to 100 uM by liquid scintillation counter.

As for `CCn1c2cc(Cl)c(N)cc2c(=O)c2c(O)cc(O)cc21`, in series [1], the EC50 amounted to 5 µg/mL (≈ 16.4 µM). The molecule further showed a CC50 at 72 h in series [2] of over 50 µg/mL. Moreover, the IC50 in series [3] is over 1000 µM. In addition, the outcome in series [4] was inactive.
On to `COc1cc(OC)c2c(=O)c3cc(F)c(N4CCN(c5ccccn5)CC4)cc3n(C)c2c1`, for which, in series [1], the concentration giving a half-maximal response (EC50) was over 50 µg/mL. Moreover, in series [2], the CC50 at 72 h is over 50 µg/mL. This molecule also came in with a half-inhibitory concentration (IC50) in series [3] of over 1000 µM. For the same molecule, the outcome in series [4] was inactive.
Take `COc1cc(OC)c2c(=O)c3cc(N)c(N4CCN(c5ccccc5OC)CC4)cc3n(C)c2c1`: the concentration giving a half-maximal response (EC50) in series [1] worked out at 16 µg/mL (≈ 33.7 µM). This molecule returned a half-maximal cytotoxic concentration (CC50) at 72 h in series [2] of over 50 µg/mL. The concentration for half-maximal inhibition (IC50) in series [3] was over 1000 µM. Also, the result in series [4] was inactive.
For the molecule `COc1ccc2c(=O)c3cc(N)c(N4CCN(c5ccccn5)CC4)cc3n(C)c2c1`, the concentration for a half-maximal effect (EC50) in series [1] stood at 0.8 µg/mL (≈ 1.93 µM). This molecule also gave a CC50 at 72 h in series [2] of 11 µg/mL (≈ 26.5 µM). The molecule further registered an IC50 in series [3] of over 1000 µM. In addition, the result in series [4] was inactive.
For the molecule `COc1cc(OC)c2c(=O)c3cc(N)c(N4CCN(c5ccccc5)CC4)cc3n(C)c2c1`, in series [1], the EC50 worked out at 9 µg/mL (≈ 20.2 µM). This molecule also showed a CC50 at 72 h in series [2] of 34 µg/mL (≈ 76.5 µM). In addition, the 50% inhibitory concentration (IC50) in series [3] is over 1000 µM. Besides, the outcome in series [4] was inactive.
Consider `COc1cc(OC)c2c(=O)c3cc(N)c(N4CCN(c5ccccn5)CC4)cc3n(CCC(C)C)c2c1`, for which, in series [1], the EC50 was determined as 10 µg/mL (≈ 19.9 µM). Further, it took 10 µg/mL (≈ 19.9 µM) to reach half-maximal cytotoxicity in series [2] (CC50 at 72 h). In addition, in series [3], the IC50 is over 1000 µM. Moreover, the outcome in series [4] was inactive.
`COc1ccc(C(=O)c2ccc(N3CCN(c4ccccn4)CC3)c(N)c2)c(OC)c1`: the half-maximal effective concentration (EC50) in series [1] amounted to 6.6 µg/mL (≈ 15.8 µM). This molecule came in with a CC50 at 72 h in series [2] of 15 µg/mL (≈ 35.8 µM). Moreover, in series [3], the IC50 is over 1000 µM. In series [4], the result was inactive.
With `COc1cc(OCC(=O)O)c2c(=O)c3cc(N)c(N4CCN(c5ccccn5)CC4)cc3n(C)c2c1`, in series [1], the concentration for a half-maximal effect (EC50) turned out to be 35 µg/mL (≈ 71.5 µM). Also, in series [2], the cytotoxic concentration (CC50) at 72 h is over 50 µg/mL. The same molecule gave an IC50 in series [3] of over 1000 µM. For the same molecule, in series [4], the result was inactive.
In the case of `COc1cc(OC)c2c(=O)c3cc(N)c(N4CCN(c5ccc(C(F)(F)F)cn5)CC4)cc3n(C)c2c1`, the EC50 in series [1] is over 50 µg/mL. This molecule also yielded a 50% cytotoxic concentration (CC50) at 72 h in series [2] of over 50 µg/mL. Further, the IC50 in series [3] was over 1000 µM. The outcome in series [4] was inactive.
In the case of `Cn1c2ccccc2c(=O)c2cc(N)c(N3CCN(c4ccccn4)CC3)cc21`, the EC50 in series [1] is 4 µg/mL (≈ 10.4 µM). In series [2], this molecule came in with a cytotoxic concentration (CC50) at 72 h of 29 µg/mL (≈ 75.2 µM). Moreover, the IC50 in series [3] is over 1000 µM. Moreover, the result in series [4] was inactive.
`COc1cc(OC)c2c(=O)cc(-c3ccc(N4CCN(c5ccccn5)CC4)c(N)c3)n(C)c2c1`: the concentration giving a half-maximal response (EC50) in series [1] is over 50 µg/mL. The CC50 at 72 h in series [2] was over 50 µg/mL. The same molecule showed a 50% inhibitory concentration (IC50) in series [3] of over 1000 µM. Also, in series [4], the result was inactive.
With `COc1cc(OC)c2c(=O)c3cc(N)c(OC)cc3n(C)c2c1`, the EC50 in series [1] is 9 µg/mL (≈ 28.6 µM). The molecule also came in with a CC50 at 72 h in series [2] of over 50 µg/mL. Also, in series [3], the half-maximal inhibitory concentration (IC50) is over 1000 µM. Further, the outcome in series [4] was inactive.
The like results for `COc1ccc(C(=O)c2ccc(N3CCN(c4ccccn4)CC3)c(N)c2)c(O)c1` were, in that order, 3.7 µg/mL (≈ 9.15 µM), over 50 µg/mL, over 1000 µM and “inactive”.
For the molecule `CCn1c2cc(N3CCN(c4ccccn4)CC3)c(N)cc2c(=O)c2c(OC)cc(OC)cc21`, the EC50 in series [1] came to 4 µg/mL (≈ 8.7 µM). This molecule registered a CC50 at 72 h in series [2] of 11 µg/mL (≈ 23.9 µM). Also, in series [3], the concentration for half-maximal inhibition (IC50) was over 1000 µM. Besides, the result in series [4] was inactive.
`COc1cc(OC)c2c(=O)c3cc(N)c(N4CCN(c5ncccn5)CC4)cc3n(C)c2c1`: the EC50 in series [1] is over 50 µg/mL. Besides, the CC50 at 72 h in series [2] is over 50 µg/mL. For the same molecule, the IC50 in series [3] is over 1000 µM. Also, the outcome in series [4] was inactive.
As for `COc1cc(OC)cc(N(C)c2ccc(N)c(N3CCN(c4ccccn4)CC3)c2)c1`, in series [1], the EC50 worked out at 4.1 µg/mL (≈ 9.77 µM). Moreover, in series [2], the half-maximal cytotoxic concentration (CC50) at 72 h came out at 7.2 µg/mL (≈ 17.2 µM). This molecule yielded an IC50 in series [3] of over 1000 µM. In series [4], the outcome was inactive.
As for `COc1cccc2c1c(=O)c1cc(N)c(N3CCN(c4ccccn4)CC3)cc1n2C`, in series [1], the 50% effective concentration (EC50) came out at 12.5 µg/mL (≈ 30.1 µM). This molecule yielded a CC50 at 72 h in series [2] of 28.5 µg/mL (≈ 68.6 µM). The molecule also registered a half-inhibitory concentration (IC50) in series [3] of over 1000 µM. Also, the outcome in series [4] was inactive.
The corresponding values for `COc1cc(O)c2c(=O)c3cc(N)c(N4CCN(c5nc6ccccc6o5)CC4)cc3n(C)c2c1` are 50 µg/mL (≈ 106 µM), over 50 µg/mL, over 1000 µM and “inactive”.
Take `CCn1c2cc(Cl)c(N)cc2c(=O)c2c(O)cc(OC)cc21`: in series [1], the half-maximal effective concentration (EC50) turned out to be 4.5 µg/mL (≈ 14.1 µM). In series [2], the 50% cytotoxic concentration (CC50) at 72 h was over 50 µg/mL. In series [3], this molecule yielded an IC50 of over 1000 µM. For the same molecule, the outcome in series [4] was inactive.
With `Nc1cc2c(=O)c3c(O)cc(O)cc3[nH]c2cc1Cl`, the EC50 in series [1] came to 19 µg/mL (≈ 68.7 µM). Further, the midpoint of cytotoxicity in series [2], the CC50 at 72 h, lay at 25 µg/mL (≈ 90.4 µM). In series [3], this molecule gave a half-maximal inhibitory concentration (IC50) of over 1000 µM. Besides, in series [4], the outcome was inactive.
The like results for `COc1cc2c(=O)c3cc(N)c(N4CCN(c5ccccn5)CC4)cc3n(C)c2cc1OC` were, in that order, 6 µg/mL (≈ 13.5 µM), 14 µg/mL (≈ 31.4 µM), over 1000 µM and “inactive”.
With `COc1cc2c(cc1N)c(=O)c1c(O)cc(O)cc1n2C`, the EC50 in series [1] stood at 5 µg/mL (≈ 17.5 µM). This molecule also gave a half-maximal cytotoxic concentration (CC50) at 72 h in series [2] of 26 µg/mL (≈ 90.8 µM). In series [3], this molecule had an IC50 of over 1000 µM. Besides, the outcome in series [4] was inactive.
Consider `Cn1c2cc(N3CCN(c4nc5ccccc5o4)CC3)c(N)cc2c(=O)c2c(O)cc(O)cc21`, for which, in series [1], the EC50 stood at 17 µg/mL (≈ 37.2 µM). This molecule also registered a cytotoxic concentration (CC50) at 72 h in series [2] of over 50 µg/mL. Further, in series [3], the IC50 was over 1000 µM. In addition, in series [4], the result was inactive.
The like results for `COc1cc(O)c2c(=O)c3cc(N)c(N4CCN(c5ccccc5)CC4)cc3n(C)c2c1` were, in that order, 2.03 µg/mL (≈ 4.72 µM), 8.5 µg/mL (≈ 19.7 µM), over 1000 µM and “inactive”.
Consider `Cn1ccc(=O)c2cc(N)c(N3CCN(c4ccccn4)CC3)cc21`, for which, in series [1], the EC50 was 11 µg/mL (≈ 32.8 µM). In series [2], this molecule showed a CC50 at 72 h of over 33 µg/mL. The half-maximal inhibitory concentration (IC50) in series [3] is over 1000 µM. The outcome in series [4] was inactive.
Take `COc1cc(OC)c2c(=O)c3cc(N)c(N4CCN(c5nc6ccccc6o5)CC4)cc3n(C)c2c1`: in series [1], the concentration for a half-maximal effect (EC50) amounted to 27 µg/mL (≈ 55.6 µM). The molecule also gave a CC50 at 72 h in series [2] of over 50 µg/mL. Also, the 50% inhibitory concentration (IC50) in series [3] was over 1000 µM. Moreover, the result in series [4] was inactive.
The like results for `COc1cc(OC)c2c(=O)c3cc(N)c(Cl)cc3n(CCC(C)C)c2c1` were, in that order, over 50 µg/mL, over 50 µg/mL, over 1000 µM and “inactive”.
The like results for `COc1cc(OC)cc(N(C)c2cc(N3CCN(c4ccccn4)CC3)c(N)cc2C(=O)O)c1` were, in that order, over 50 µg/mL, over 50 µg/mL, over 1000 µM and “inactive”.
For the molecule `COc1cc(O)c2c(=O)c3cc(N)c(OC)cc3n(C)c2c1`, the EC50 in series [1] came to 18 µg/mL (≈ 59.9 µM). In series [2], this molecule showed a CC50 at 72 h of over 50 µg/mL. This molecule displayed an IC50 in series [3] of over 1000 µM. Moreover, the result in series [4] was inactive.
As for `CCCOc1cc(OC)cc2c1c(=O)c1cc(N)c(N3CCN(c4ccccn4)CC3)cc1n2C`, the concentration giving a half-maximal response (EC50) in series [1] was 17 µg/mL (≈ 35.9 µM). This molecule registered a CC50 at 72 h in series [2] of over 50 µg/mL. For the same molecule, the IC50 in series [3] is over 1000 µM. Also, the result in series [4] was inactive.

For orientation: EC50 means the concentration at which the effect is half-maximal. One may read the CC50 as the concentration at which the toxic effect on the cells reaches its halfway point. As a reminder, the IC50 is the concentration that inhibits the measured activity by half. High values mean weaker potency, low ones greater potency.
